Laboratory results taken from ChEMBL document CHEMBL1201862, “PubChem BioAssay data set” (2004).
Activity calls are given as the source filed them.

Experiments:
[1] = molecular target: T1, Calpain-2 catalytic subunit (Sus scrofa, UniProt P43367); assay: m-calpain protease blockers, concentration series – biochemical, fluorogenic peptide substrate, dose response (AID 1420); type: functional
T1 sequence (P43367 whole entry): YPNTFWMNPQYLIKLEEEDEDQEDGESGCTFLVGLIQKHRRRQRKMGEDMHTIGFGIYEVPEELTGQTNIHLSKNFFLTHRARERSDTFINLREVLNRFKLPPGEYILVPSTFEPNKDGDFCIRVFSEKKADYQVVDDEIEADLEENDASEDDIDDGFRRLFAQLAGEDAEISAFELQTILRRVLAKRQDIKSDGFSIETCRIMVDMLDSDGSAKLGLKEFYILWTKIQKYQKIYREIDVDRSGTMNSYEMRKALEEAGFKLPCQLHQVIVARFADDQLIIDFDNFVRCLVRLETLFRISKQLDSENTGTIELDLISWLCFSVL

Coagulation factor XII = molecular target: T2, Coagulation factor XII (Homo sapiens, UniProt P00748); type: functional;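 further: activated factor XIIa alpha cleaving a fluorogenic AMC peptide substrate; inhibitor potency from loss of enzyme activity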
T2 sequence (P00748 whole entry): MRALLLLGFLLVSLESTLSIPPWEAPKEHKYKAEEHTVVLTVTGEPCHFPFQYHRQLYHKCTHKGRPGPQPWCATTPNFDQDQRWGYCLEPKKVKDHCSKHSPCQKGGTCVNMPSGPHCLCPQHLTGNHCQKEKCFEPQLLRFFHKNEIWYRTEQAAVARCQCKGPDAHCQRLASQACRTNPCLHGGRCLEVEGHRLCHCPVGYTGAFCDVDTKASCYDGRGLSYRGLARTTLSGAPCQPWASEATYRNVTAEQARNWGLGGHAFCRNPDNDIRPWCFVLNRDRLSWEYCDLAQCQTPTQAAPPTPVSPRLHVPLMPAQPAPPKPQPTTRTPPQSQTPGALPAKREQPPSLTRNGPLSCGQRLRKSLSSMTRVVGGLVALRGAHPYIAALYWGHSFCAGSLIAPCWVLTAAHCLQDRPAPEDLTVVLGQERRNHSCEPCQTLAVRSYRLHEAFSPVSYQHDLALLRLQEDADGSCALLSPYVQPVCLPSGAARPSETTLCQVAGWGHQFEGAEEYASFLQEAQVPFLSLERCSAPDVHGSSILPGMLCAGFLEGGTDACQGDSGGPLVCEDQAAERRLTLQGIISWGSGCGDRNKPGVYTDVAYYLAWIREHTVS

Escherichia coli = assay: microbe, parasite or virus in culture
[2] = molecular target: Glyceraldehyde-3-phosphate dehydrogenase (Homo sapiens, UniProt P04406)
[3] = molecular target: T3, Alkaline phosphatase, tissue-nonspecific isozyme (Homo sapiens, UniProt P05186); assay: potency against alkaline phosphatase TNAP – biochemical, luminescent, dose response, SAR follow-up (AID 1056)
T3 sequence (P05186 whole entry): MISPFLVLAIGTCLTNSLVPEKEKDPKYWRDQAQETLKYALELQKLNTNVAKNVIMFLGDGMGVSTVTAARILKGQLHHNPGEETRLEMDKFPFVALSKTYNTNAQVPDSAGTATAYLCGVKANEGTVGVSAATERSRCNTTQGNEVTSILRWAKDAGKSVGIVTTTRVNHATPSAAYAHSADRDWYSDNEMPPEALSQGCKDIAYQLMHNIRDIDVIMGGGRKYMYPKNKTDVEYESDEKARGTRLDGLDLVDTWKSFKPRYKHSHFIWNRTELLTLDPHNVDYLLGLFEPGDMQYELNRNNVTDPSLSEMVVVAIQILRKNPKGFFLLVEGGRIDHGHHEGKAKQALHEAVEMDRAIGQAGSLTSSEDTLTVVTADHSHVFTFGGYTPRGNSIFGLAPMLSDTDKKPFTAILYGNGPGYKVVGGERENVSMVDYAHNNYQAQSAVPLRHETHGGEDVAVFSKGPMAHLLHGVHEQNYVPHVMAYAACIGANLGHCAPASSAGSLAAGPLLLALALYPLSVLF

Leucine aminopeptidase = molecular target: T4, Leucine aminopeptidase (Plasmodium falciparum 3D7, UniProt Q8IL11); assay: P. falciparum M17LAP inhibitors, primary screen, biochemical, fluorogenic H-Leu-NHMec substrate, 1536-well (AID 1619); type: functional
T4 sequence (Q8IL11 whole entry): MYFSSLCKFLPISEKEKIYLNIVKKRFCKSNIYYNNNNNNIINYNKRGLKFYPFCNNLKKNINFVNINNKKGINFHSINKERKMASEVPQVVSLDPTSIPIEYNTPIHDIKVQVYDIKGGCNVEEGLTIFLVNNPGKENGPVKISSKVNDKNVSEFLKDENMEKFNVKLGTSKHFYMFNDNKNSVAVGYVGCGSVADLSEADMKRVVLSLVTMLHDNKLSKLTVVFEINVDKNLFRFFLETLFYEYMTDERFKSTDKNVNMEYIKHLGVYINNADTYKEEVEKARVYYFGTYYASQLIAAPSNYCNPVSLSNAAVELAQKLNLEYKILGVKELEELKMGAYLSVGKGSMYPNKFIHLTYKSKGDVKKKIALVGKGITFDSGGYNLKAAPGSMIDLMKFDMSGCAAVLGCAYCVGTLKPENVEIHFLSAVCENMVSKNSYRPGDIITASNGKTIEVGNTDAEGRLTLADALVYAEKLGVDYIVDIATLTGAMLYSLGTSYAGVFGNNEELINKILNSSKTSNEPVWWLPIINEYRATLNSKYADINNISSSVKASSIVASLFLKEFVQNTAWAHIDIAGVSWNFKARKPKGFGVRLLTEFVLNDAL

[4] = molecular target: T5, Ubiquitin-conjugating enzyme E2 N (Homo sapiens, UniProt P61088); type: functional;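 further: Dose-response confirmation in a TR-FRET assay detecting UBC13-driven polyubiquitin chain formation, inhibition measured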
T5 sequence (P61088 whole entry): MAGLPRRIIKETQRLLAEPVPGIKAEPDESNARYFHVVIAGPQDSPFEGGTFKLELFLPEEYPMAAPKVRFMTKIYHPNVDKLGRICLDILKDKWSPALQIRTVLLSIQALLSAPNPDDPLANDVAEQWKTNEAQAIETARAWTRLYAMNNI

Nonstructural protein 1 = Nonstructural protein 1 (Influenza A virus, UniProt Q194T2); type: functional, Influenza A virus (A/California/07/2009(H1N1))
[5] = molecular target: T6, DNA repair and recombination protein RAD54-like (Homo sapiens, UniProt Q92698); assay: RAD54 Holliday junction migration blockers – biochemical, fluorescence, cherry-picked samples, dose series, confirmation (AID 651657); type: functional
T6 sequence (Q92698 whole entry): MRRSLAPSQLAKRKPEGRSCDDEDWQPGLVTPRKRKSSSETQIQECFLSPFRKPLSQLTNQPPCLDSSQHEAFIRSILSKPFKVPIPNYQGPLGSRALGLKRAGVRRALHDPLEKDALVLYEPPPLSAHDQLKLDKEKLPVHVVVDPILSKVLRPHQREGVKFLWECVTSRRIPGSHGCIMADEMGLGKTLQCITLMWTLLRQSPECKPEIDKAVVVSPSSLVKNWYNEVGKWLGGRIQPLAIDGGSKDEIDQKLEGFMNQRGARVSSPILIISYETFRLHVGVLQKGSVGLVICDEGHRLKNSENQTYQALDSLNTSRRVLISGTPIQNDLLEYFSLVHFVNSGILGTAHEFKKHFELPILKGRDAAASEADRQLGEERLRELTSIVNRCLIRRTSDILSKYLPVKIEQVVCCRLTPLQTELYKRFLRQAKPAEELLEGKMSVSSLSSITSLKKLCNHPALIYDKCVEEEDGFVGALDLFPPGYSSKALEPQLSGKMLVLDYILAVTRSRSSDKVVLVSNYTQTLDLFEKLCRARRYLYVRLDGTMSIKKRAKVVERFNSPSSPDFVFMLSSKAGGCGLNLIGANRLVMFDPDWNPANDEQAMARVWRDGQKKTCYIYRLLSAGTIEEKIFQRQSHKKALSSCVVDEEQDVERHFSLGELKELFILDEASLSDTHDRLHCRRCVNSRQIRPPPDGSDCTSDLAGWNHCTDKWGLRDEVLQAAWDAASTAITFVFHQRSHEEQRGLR

Cytochrome P450 3A4 = Cytochrome P450 3A4 (Homo sapiens, UniProt P08684);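 further: CYP3A4 tested as one member of a cytochrome P450 panel screen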
Chain of Cytochrome P450 3A4 (P08684 whole entry): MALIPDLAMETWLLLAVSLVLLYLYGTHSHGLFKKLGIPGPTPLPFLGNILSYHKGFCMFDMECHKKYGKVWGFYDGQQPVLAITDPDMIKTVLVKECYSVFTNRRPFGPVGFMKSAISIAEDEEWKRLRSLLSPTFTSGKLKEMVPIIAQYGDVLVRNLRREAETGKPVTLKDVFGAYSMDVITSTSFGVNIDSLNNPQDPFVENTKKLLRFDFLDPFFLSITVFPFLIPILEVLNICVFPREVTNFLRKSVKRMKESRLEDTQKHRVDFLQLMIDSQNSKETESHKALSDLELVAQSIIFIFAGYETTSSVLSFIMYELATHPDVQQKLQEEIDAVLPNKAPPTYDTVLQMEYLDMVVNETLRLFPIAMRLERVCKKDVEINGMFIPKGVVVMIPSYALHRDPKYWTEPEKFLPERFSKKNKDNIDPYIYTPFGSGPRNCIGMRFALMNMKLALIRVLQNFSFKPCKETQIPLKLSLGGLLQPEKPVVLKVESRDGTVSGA

Chain of Glyceraldehyde-3-phosphate dehydrogenase (P04406 whole entry): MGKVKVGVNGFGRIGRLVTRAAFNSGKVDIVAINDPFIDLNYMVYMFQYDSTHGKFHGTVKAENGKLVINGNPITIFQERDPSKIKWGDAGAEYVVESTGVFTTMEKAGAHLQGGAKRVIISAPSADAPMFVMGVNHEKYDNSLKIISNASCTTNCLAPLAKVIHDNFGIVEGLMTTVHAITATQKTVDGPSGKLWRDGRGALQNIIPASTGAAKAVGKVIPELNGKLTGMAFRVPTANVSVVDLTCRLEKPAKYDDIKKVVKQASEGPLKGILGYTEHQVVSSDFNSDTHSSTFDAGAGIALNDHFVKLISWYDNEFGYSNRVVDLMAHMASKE
Chain of Nonstructural protein 1 (Q194T2 whole entry): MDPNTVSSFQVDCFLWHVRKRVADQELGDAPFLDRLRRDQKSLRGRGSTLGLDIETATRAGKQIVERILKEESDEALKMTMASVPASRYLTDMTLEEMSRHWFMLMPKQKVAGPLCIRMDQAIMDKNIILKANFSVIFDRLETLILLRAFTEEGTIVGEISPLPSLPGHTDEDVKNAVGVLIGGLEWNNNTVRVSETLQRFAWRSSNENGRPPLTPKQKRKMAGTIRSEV

Compound: COc1ccc(OC)c(CNc2ccc([N+](=O)[O-])cc2C)c1
- IC50 [1]: 8.98 µM (not active)
- IC50 (Coagulation factor XII): > 50 µM (inactive)

Compound: COc1ccccc1NS(=O)(=O)c1cc(NC(C)=O)ccc1N1CCCCC1
- AC50 (Escherichia coli): 30.4 µM (active)

Compound: CN(C(=O)COC(=O)c1cc(-c2ccc(Br)cc2)[nH]n1)C1CCCCC1
- IC50 [2]: > 100 µM (not active)
- IC50 [3]: > 100 µM (inactive)

Compound: COc1ccc(NC(=O)CN2C(=O)CSC(C)C2=O)cc1 (configuration not stated)
- IC50 (Leucine aminopeptidase): 3.83 µM (active)

Compound: CCc1nc2ccccc2c(C(=O)OCc2nc3ccccc3c(=O)[nH]2)c1C
- IC50 [4]: > 20 µM (inactive)

Compound: O=C(N[C@H](C(=O)O)c1ccccc1)C1CCC(Cn2nnc3ccccc3c2=O)CC1 (some centres not stated)
- IC50 (Coagulation factor XII): > 50 µM (inactive)

Compound: c1cncc(-n2cnnn2)c1
- IC50 [2]: > 100 µM (not active)
- IC50 [3]: > 100 µM (inactive)

Compound: C=CC(=O)Nc1ccc(N(C)c2ccnc(Nc3ccc(N4CCN(C)CC4)cc3)n2)cc1
- IC50 [4]: > 20 µM (inactive)
- IC50 (Nonstructural protein 1): 25.5 µM (active)
- AC50 [5]: 21 µM (active)

Compound: COc1ccccc1N1CCN(C/C(O)=C(\C#N)c2nc(-c3ccccc3)cs2)CC1
- IC50 (Coagulation factor XII): > 50 µM (inactive)

Compound: CC(C)/N=C/c1c(O)[nH]c2ccccc12
- IC50 (Coagulation factor XII): > 50 µM (inactive)

Compound: Cn1c(=O)[nH]c2ncn(C)c2c1=O [PARAXANTHINE]
- AC50 (Cytochrome P450 3A4): inconclusive
- AC50 (Escherichia coli): 23.3 µM (active)
